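Cells were grown in 96-well plates and exposed to each compound for 48 hours at five concentrations; endpoints were interpolated linearly between bracketing concentrations, or set to the highest concentration if not reached. At the GI50, growth is halved.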 The source made the active and inactive calls. Cut-off read from the data, not from the text of the source: active = GI50 up to about 1.1 µM and inactive = higher.
Tests used:
Test in all cases: NCI-60 cell line screen, 48 h
M14 = tested on: M14
CCRF-CEM = tested on: CCRF-CEM
HT-29 = tested on: HT-29
IGROV-1 = tested on: IGROV-1
SK-MEL-5 = tested on: SK-MEL-5
SF-539 = tested on: SF-539
TK-10 = tested on: TK-10
SF-295 = tested on: SF-295
UACC-62 = tested on: UACC-62
SNB-75 = tested on: SNB-75
SNB-19 = tested on: SNB-19
OVCAR-5 = tested on: OVCAR-5
NCI-H522 = tested on: NCI-H522
KM12 = tested on: KM12
RXF 393 = tested on: RXF 393
SF-268 = tested on: SF-268
UACC-257 = tested on: UACC-257

Structure (SMILES)	GI50 (M14)	GI50 (CCRF-CEM)	GI50 (HT-29)	GI50 (IGROV-1)	GI50 (SK-MEL-5)	GI50 (SF-539)	GI50 (TK-10)	GI50 (SF-295)	GI50 (UACC-62)	GI50 (SNB-75)	GI50 (SNB-19)	GI50 (OVCAR-5)	GI50 (NCI-H522)	GI50 (KM12)	GI50 (RXF 393)	GI50 (SF-268)	GI50 (UACC-257)
CC1(C)OC2OC(/C=C/[N+](=O)[O-])C3OC(C)(C)OC3C2O1 (configuration not stated)	12.3 µM (inactive)	2.94 µM (inactive)	17.2 µM (inactive)	34.9 µM (inactive)	16.6 µM (inactive)	13.6 µM (inactive)	5.26 µM (inactive)	19.5 µM (inactive)	15.1 µM (inactive)	20.2 µM (inactive)	18.5 µM (inactive)	23.2 µM (inactive)	1.77 µM (inactive)	17.2 µM (inactive)	1.99 µM (inactive)	19.8 µM (inactive)	7.52 µM (inactive)
N#CCCN(CCC#N)c1ccc(C(Sc2ccccc2)C(NC(=O)c2cc([N+](=O)[O-])ccc2Cl)C(=O)Sc2ccccc2)cc1 (configuration not stated)	3.32 µM (inactive)	0.172 µM (active)	4.1 µM (inactive)	1.92 µM (inactive)	3.27 µM (inactive)	1.8 µM (inactive)	7.28 µM (inactive)	3.37 µM (inactive)	1.68 µM (inactive)	5.41 µM (inactive)	3.54 µM (inactive)	4.38 µM (inactive)	2.36 µM (inactive)	3.53 µM (inactive)	2.09 µM (inactive)	2.35 µM (inactive)	8.07 µM (inactive)
COc1ccc(C(=O)O)c(Cc2ccc3ccccc3c2)c1	> 100 µM (inactive)	> 100 µM (inactive)	> 100 µM (inactive)	> 100 µM (inactive)	> 100 µM (inactive)	> 100 µM (inactive)	> 100 µM (inactive)	> 100 µM (inactive)	> 100 µM (inactive)	> 100 µM (inactive)	> 100 µM (inactive)	> 100 µM (inactive)	> 100 µM (inactive)	> 100 µM (inactive)	> 100 µM (inactive)	> 100 µM (inactive)	> 100 µM (inactive)
COc1ccc(/C(=C\c2cc(OC)c(OC)c(OC)c2)C(=O)O)cc1	26.6 µM (inactive)	32.5 µM (inactive)	35.6 µM (inactive)	48.4 µM (inactive)	16 µM (inactive)	14.2 µM (inactive)	87.9 µM (inactive)	19.9 µM (inactive)	37 µM (inactive)	25.6 µM (inactive)	54.2 µM (inactive)		21 µM (inactive)	25.4 µM (inactive)	18.8 µM (inactive)	51.6 µM (inactive)	61 µM (inactive)
COc1ccc(Nc2nc3c(N)cc(C(F)(F)F)cc3nc2-c2ccccc2)cc1OC	28.6 µM (inactive)	> 100 µM (inactive)		22.3 µM (inactive)	20.4 µM (inactive)	18.2 µM (inactive)	21.3 µM (inactive)	19.7 µM (inactive)	19.7 µM (inactive)	4.85 µM (inactive)	19.8 µM (inactive)	64.7 µM (inactive)	15.6 µM (inactive)	29.3 µM (inactive)	25.7 µM (inactive)	16.5 µM (inactive)	27.2 µM (inactive)
O=c1c2cc(Br)ccc2nc(-c2ccccc2)n1NCC1(O)OCC(O)C(O)C1O (configuration not stated)	> 100 µM (inactive)	40.2 µM (inactive)	> 100 µM (inactive)		> 100 µM (inactive)	> 100 µM (inactive)		> 100 µM (inactive)	> 100 µM (inactive)	> 100 µM (inactive)	> 100 µM (inactive)	> 100 µM (inactive)	> 100 µM (inactive)	> 100 µM (inactive)	> 100 µM (inactive)	> 100 µM (inactive)	> 100 µM (inactive)
CC1=N/C(=C\c2ccc(/C=C3/N=C(C)OC3=O)cc2)C(=O)O1	> 100 µM (inactive)	> 100 µM (inactive)	> 100 µM (inactive)	> 100 µM (inactive)	> 100 µM (inactive)	> 100 µM (inactive)	> 100 µM (inactive)		> 100 µM (inactive)	> 100 µM (inactive)	> 100 µM (inactive)	> 10 µM (inactive)	> 100 µM (inactive)	> 100 µM (inactive)	> 100 µM (inactive)	> 100 µM (inactive)	> 100 µM (inactive)
NNC(=S)N/N=C/C(=C/Nc1ccccc1)[N+](=O)[O-]	> 100 µM (inactive)		> 100 µM (inactive)	> 100 µM (inactive)		> 100 µM (inactive)	> 100 µM (inactive)	> 100 µM (inactive)	> 100 µM (inactive)	> 100 µM (inactive)	> 100 µM (inactive)	> 100 µM (inactive)	> 100 µM (inactive)		> 100 µM (inactive)	> 100 µM (inactive)	> 100 µM (inactive)
Cc1ccc(-c2cc(-c3ccccc3)c(C#N)c(=O)n2C2OC(CO)C(O)C(O)C2O)cc1 (configuration not stated)	> 100 µM (inactive)	> 100 µM (inactive)	> 100 µM (inactive)	> 100 µM (inactive)	58.5 µM (inactive)	> 100 µM (inactive)	> 100 µM (inactive)	> 100 µM (inactive)	> 100 µM (inactive)		> 100 µM (inactive)	> 100 µM (inactive)	> 100 µM (inactive)	> 100 µM (inactive)	> 100 µM (inactive)	> 100 µM (inactive)	> 100 µM (inactive)
COC(=O)[C@]1(C)CCC[C@]2(C)C3CC4OOC3(C=C4C(C)(C)O)CCC21 (some centres not stated)	31 µM (inactive)	21.6 µM (inactive)	22.6 µM (inactive)	72.4 µM (inactive)	34.6 µM (inactive)	> 100 µM (inactive)	> 100 µM (inactive)	95.9 µM (inactive)	29.2 µM (inactive)		> 100 µM (inactive)	> 100 µM (inactive)	20.2 µM (inactive)	42.7 µM (inactive)		60.1 µM (inactive)	80.5 µM (inactive)
N#Cc1ccccc1NC(=O)/C(=N\N)C(C(=O)c1ccncc1)C1OC(=O)c2ccccc21 (configuration not stated)	> 100 µM (inactive)	> 100 µM (inactive)	> 100 µM (inactive)	> 100 µM (inactive)	> 100 µM (inactive)	> 100 µM (inactive)	> 100 µM (inactive)	> 100 µM (inactive)	> 100 µM (inactive)		> 100 µM (inactive)	> 100 µM (inactive)	> 100 µM (inactive)	> 100 µM (inactive)		> 100 µM (inactive)	> 100 µM (inactive)
OCC(O)C(OC1OC(CO)C(O)C(O)C1O)c1nn(-c2ccccc2)c2nc3cc(Cl)c(Cl)cc3cc12 (configuration not stated)	> 100 µM (inactive)	> 100 µM (inactive)	> 100 µM (inactive)			> 100 µM (inactive)	> 100 µM (inactive)	> 100 µM (inactive)	> 100 µM (inactive)	> 100 µM (inactive)	> 100 µM (inactive)	> 100 µM (inactive)	63 µM (inactive)	45 µM (inactive)	> 100 µM (inactive)	> 100 µM (inactive)	> 100 µM (inactive)
CNC(=S)NC(=S)N(C)C	> 100 µM (inactive)			> 100 µM (inactive)		> 100 µM (inactive)	> 100 µM (inactive)	> 100 µM (inactive)		> 100 µM (inactive)	> 100 µM (inactive)		0.678 µM (active)		> 100 µM (inactive)	> 100 µM (inactive)	> 100 µM (inactive)
COC(=O)C(=O)C(C(=O)C(=O)Nc1cc(Cl)c(Cl)cc1Cl)c1nc2ccc([N+](=O)[O-])cc2nc1O (configuration not stated)	> 100 µM (inactive)	> 100 µM (inactive)		> 100 µM (inactive)	> 100 µM (inactive)	> 100 µM (inactive)	> 100 µM (inactive)	> 100 µM (inactive)	> 100 µM (inactive)		> 100 µM (inactive)	> 100 µM (inactive)	46.9 µM (inactive)	> 100 µM (inactive)	> 100 µM (inactive)	> 100 µM (inactive)	> 100 µM (inactive)
CCOC(=O)C1=C(C)C2C3C(=O)NC(=O)C3C1(C)C1C(=O)NC(=O)C21 (configuration not stated)	> 100 µM (inactive)	> 100 µM (inactive)	> 100 µM (inactive)	> 100 µM (inactive)	> 100 µM (inactive)	> 100 µM (inactive)	> 100 µM (inactive)	> 100 µM (inactive)	> 100 µM (inactive)	> 100 µM (inactive)	> 100 µM (inactive)			> 100 µM (inactive)	> 100 µM (inactive)	> 100 µM (inactive)	> 100 µM (inactive)
COc1cccc(N2C(=O)c3c(c4[nH]c5ccccc5c4c4ccc(C(C)(C)C)cc34)C2=O)c1	> 100 µM (inactive)	> 100 µM (inactive)		> 100 µM (inactive)	> 100 µM (inactive)	> 100 µM (inactive)	> 100 µM (inactive)	> 100 µM (inactive)	> 100 µM (inactive)	> 100 µM (inactive)	> 100 µM (inactive)	> 100 µM (inactive)	> 100 µM (inactive)	> 100 µM (inactive)	> 100 µM (inactive)	> 100 µM (inactive)	> 100 µM (inactive)
CCN(CC)C(=O)CCn1cc(F)c(=O)[nH]c1=O	> 100 µM (inactive)	> 100 µM (inactive)	> 100 µM (inactive)	> 100 µM (inactive)	> 100 µM (inactive)	> 100 µM (inactive)	> 100 µM (inactive)	> 100 µM (inactive)	> 100 µM (inactive)	4.68 µM (inactive)	> 100 µM (inactive)	> 100 µM (inactive)	> 100 µM (inactive)	> 100 µM (inactive)	> 100 µM (inactive)	> 100 µM (inactive)	
